Measurements published in the NIST ThermoML archive (doi:10.1016/j.jct.2015.05.028).
± gives the expanded uncertainty stated by the source.

Legend:
[1] = Crystal; DTA
[2] = mn = molality of the nth substance listed, in mol/kg; conditions: 99.6 kPa, Liquid, Vibrating tube method

CCN1C(=O)N(CC)C2NC(=O)NC21 (centres undefined)
Conditions	Normal melting temperature [°C]
[1]	327.64 ± 2

CN1C(=O)N(C)C2NC(=O)NC21 (centres undefined)
Conditions	Normal melting temperature [°C]
[1]	253.28 ± 2

CN1C(=O)N(C)C2NC(=O)NC21 (centres undefined) + O
mass density [kg/m3], [2]
Conditions	278.15 K	288.15 K	298.15 K	308.15 K	318.15 K
m1 = 0.06671	1003.16 ± 0.11	1002.21 ± 0.11	1000.08 ± 0.11	997.02 ± 0.11	993.153 ± 0.11
m1 = 0.0951	1004.51 ± 0.11	1003.52 ± 0.11	1001.37 ± 0.11	998.281 ± 0.11	994.389 ± 0.11
m1 = 0.1319	1006.28 ± 0.11	1005.23 ± 0.11	1003.04 ± 0.11	999.917 ± 0.11	995.999 ± 0.11
m1 = 0.169	1008.03 ± 0.11	1006.93 ± 0.11	1004.72 ± 0.11	1001.55 ± 0.11	997.607 ± 0.11
m1 = 0.1987	1009.43 ± 0.11	1008.31 ± 0.11	1006.04 ± 0.11	1002.87 ± 0.11	998.902 ± 0.11
m1 = 0.2323	1011.02 ± 0.11	1009.84 ± 0.11	1007.54 ± 0.11	1004.34 ± 0.11	1000.35 ± 0.11
m1 = 0.2679	1012.68 ± 0.11	1011.46 ± 0.11	1009.13 ± 0.11	1005.9 ± 0.11	1001.88 ± 0.11
m1 = 0.3038	1014.37 ± 0.11	1013.1 ± 0.11	1010.73 ± 0.11	1007.47 ± 0.11	1003.42 ± 0.11
m1 = 0.3326	1015.72 ± 0.11	1014.41 ± 0.11	1012.01 ± 0.11	1008.71 ± 0.11	1004.65 ± 0.11
m1 = 0.3594	1016.96 ± 0.11	1015.62 ± 0.11	1013.19 ± 0.11	1009.88 ± 0.11	1005.79 ± 0.11
m1 = 0.3919	1018.47 ± 0.11	1017.09 ± 0.11	1014.62 ± 0.11	1011.29 ± 0.11	1007.17 ± 0.11

O [water] + CCN1C(=O)N(CC)C2NC(=O)NC21
Conditions	mass density [kg/m3]
[2], 278.15 K, m2 = 0	999.964 ± 0.11

O [water] + CN1C(=O)N(C)C2NC(=O)NC21
Conditions	mass density [kg/m3]
[2], 278.15 K, m2 = 0	999.965 ± 0.11
